pEC50, pKi: −log10 of the molar value.
How the values were obtained:
[1] = target: T1, Poly [ADP-ribose] polymerase 1 (Homo sapiens, UniProt P09874); experiment: Inhibition of PARP1 in human C41 cells; assay type: cell-based
[2] = target: T1, Poly [ADP-ribose] polymerase 1; experiment: Inhibition of PARP1 by microplate scintillation counting

T1 sequence (P09874 whole entry): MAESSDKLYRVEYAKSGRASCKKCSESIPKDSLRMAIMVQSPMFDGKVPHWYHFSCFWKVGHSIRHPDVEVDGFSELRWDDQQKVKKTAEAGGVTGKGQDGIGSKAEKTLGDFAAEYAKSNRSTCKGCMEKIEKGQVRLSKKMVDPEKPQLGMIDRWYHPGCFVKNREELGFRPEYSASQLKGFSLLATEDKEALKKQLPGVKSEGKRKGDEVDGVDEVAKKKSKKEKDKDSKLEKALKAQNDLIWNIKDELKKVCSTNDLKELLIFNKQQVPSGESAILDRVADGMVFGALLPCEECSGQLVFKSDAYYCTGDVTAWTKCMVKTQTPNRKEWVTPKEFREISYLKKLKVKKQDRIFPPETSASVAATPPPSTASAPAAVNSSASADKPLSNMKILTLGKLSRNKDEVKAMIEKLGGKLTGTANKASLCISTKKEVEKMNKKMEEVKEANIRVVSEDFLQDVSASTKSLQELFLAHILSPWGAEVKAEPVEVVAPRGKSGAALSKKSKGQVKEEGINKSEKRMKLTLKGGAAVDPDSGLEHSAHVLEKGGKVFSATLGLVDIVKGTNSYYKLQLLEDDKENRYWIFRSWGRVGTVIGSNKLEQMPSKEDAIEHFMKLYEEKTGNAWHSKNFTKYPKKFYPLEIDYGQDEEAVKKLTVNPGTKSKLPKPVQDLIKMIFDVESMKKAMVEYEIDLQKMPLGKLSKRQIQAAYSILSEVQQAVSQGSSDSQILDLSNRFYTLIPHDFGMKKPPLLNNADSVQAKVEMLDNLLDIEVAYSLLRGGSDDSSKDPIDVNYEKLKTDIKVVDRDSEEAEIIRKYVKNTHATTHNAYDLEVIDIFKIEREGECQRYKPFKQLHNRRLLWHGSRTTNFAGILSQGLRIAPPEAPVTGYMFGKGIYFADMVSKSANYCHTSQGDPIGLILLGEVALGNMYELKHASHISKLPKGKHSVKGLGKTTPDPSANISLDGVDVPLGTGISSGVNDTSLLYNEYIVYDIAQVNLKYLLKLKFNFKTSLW

| Structure (SMILES) | pEC50 [1] | pKi [2] |
| --- | --- | --- |
| NC(=O)c1cccc2c1C(=O)N(C1CCNC1)C2 (stereo unspecified) | 6.80 | 7.23 |
| CC(C)CN1Cc2cccc(C(N)=O)c2C1=O | < 6.00 | 6.95 |
| NC(=O)c1cccc2c1C(=O)N(CC1CCNCC1)C2 |  | 6.42 |
| NC(=O)c1cccc2c1C(=O)N(Cc1cccnc1)C2 |  | < 5.02 |
| NC(=O)c1cccc2c1C(=O)N(c1ccc(C3CCNCC3)cc1)C2 | 6.92 | 7.49 |
| NC(=O)c1cccc2c1C(=O)N(c1cccc(C3CCNCC3)c1)C2 |  | 6.50 |
| CN1Cc2cccc(C(N)=O)c2C1=O |  | 6.91 |
| NC(=O)c1cccc2c1C(=O)N(c1cccc(CN3CCCC3)c1)C2 |  | 6.41 |
| NC(=O)c1cccc2c1C(=O)N(C1CCCCC1)C2 | < 6.00 | 6.76 |
| NC(=O)c1cccc2c1C(=O)N(c1ccc(CN3CCCC3)cc1)C2 | 7.28 | 7.28 |
| CN1CCN(c2ccc(N3Cc4cccc(C(N)=O)c4C3=O)cc2)CC1 | 7.66 | 7.32 |
| CN(C)c1ccc(N2Cc3cccc(C(N)=O)c3C2=O)cc1 | 6.43 | 7.15 |
| NC(=O)c1cccc2c1C(=O)N(C1CCCNC1)C2 (stereo unspecified) |  | 6.85 |
| NC(=O)c1cccc2c1C(=O)N(CC1CCCNC1)C2 (stereo unspecified) |  | 6.79 |
| Cc1cccc(N2Cc3cccc(C(N)=O)c3C2=O)c1 |  | 6.58 |
| NC(=O)c1cccc2c1C(=O)N(C1CCNCC1)C2 | 7.29 | 7.48 |
| NC(=O)c1cccc2c1C(=O)N(CC1CCCN1)C2 (stereo unspecified) | 6.43 | 6.42 |

From ChEMBL document CHEMBL1159077, “Discovery and SAR of substituted 3-oxoisoindoline-4-carboxamides as potent inhibitors of poly(ADP-ribose) polymerase (PARP) for the treatment of cancer” (Bioorg Med Chem Lett, 2010)
